One series concerns the target T1, Flt-3 (Homo sapiens, UniProt P36888).
T1 construct: amino acids 563-993 of the cytoplasmic kinase domain of human Flt-3; made in house; host or cells: Sf9 insect cells (baculovirus, vector pFbacG01)
T1 sequence (P36888 563-993): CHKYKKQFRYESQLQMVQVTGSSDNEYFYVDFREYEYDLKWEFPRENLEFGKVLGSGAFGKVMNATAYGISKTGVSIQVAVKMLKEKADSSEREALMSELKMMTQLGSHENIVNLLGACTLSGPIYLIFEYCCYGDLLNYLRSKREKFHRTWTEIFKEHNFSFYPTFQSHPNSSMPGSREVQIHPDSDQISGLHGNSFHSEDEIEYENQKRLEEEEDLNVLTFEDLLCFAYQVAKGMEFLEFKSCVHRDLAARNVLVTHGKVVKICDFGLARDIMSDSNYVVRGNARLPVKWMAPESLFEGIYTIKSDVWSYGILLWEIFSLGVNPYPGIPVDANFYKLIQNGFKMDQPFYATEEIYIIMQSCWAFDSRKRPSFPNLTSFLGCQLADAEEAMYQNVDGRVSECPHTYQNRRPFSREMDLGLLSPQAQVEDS
In words: Flt-3 kinase inhibition (GST-Flt-3, 33P incorporation into poly(Glu,Tyr)). The class given is biochemical. As to the method: Flt-3 kinase inhibition is determined as follows: The baculovirus donor vector pFbacG01 (GIBCO) is used to generate a recombinant baculovirus expressing the amino acid region amino acids 563-993 of the cytoplasmic kinase domain of human Flt-3. The coding sequence for the cytoplasmic domain of Flt-3 is amplified by PCR from human c-DNA libraries (Clontech). The amplified DNA fragments and the pFbacG01 vector are made compatible for ligation by digestion with BamHI and HindIII. Ligation of these DNA fragments results in the baculovirus donor plasmid pFbacG01-Flt-3. The production of the viruses, the expression of proteins in Sf9 cells and the purification of the GST-fused proteins are performed as follows:
Production of virus: The baculovirus donor plasmid (pFbacG01-Flt-3) containing the Flt-3 kinase domain is transfected into the DH10Bac cell line (GIBCO) and the transfected cells are plated on selective agar plates. Colonies without insertion of the fusion sequence into the viral genome (carried by the bacteria) are blue. Single white colonies are picked and viral DNA (bacmid) is isolated from the bacteria by standard plasmid purification procedures. Sf9 or Sf21 cells (American Type Culture Collection) are then transfected in flasks with the viral DNA using Cellfectin reagent.
Protein expression in Sf9 cells: Virus containing media is collected from the transfected cell culture and used for infection to increase its titre. Virus containing media obtained after two rounds of infection is used for large-scale protein expression. For large-scale protein expression 100 cm^2 round tissue culture plates are seeded with 5×10^7 cells/plate and infected with 1 mL of virus-containing media (approx. 5 MOIs). After 3 days the cells are scraped off the plate and centrifuged at 500 rpm for 5 min. Cell pellets from 10-20, 100 cm^2 plates are resuspended in 50 mL of ice-cold lysis buffer (25 mM Tris-HCl, pH 7.5, 2 mM EDTA-1% NP-40. 1 mM DTT, 1 mM PMSF). The cells are stirred on ice for 15 min and then centrifuged at 5000 rpms for 20 min.
Purification of GST-tagged protein: The centrifuged cell lysate is loaded onto a 2 mL glutathione-sepharose column (Pharmacia) and washed three times with 10 mL of 25 mM Tris-HCl, pH 7.5, 2 mM EDTA, 1 mM DTT, 200 mM NaCl. The GST-tagged protein is then eluted by 10 applications (1 mL each) of 25 mM Tris-HCl, pH 7.5, 10 mM reduced-glutathione, 100 mM NaCl, 1 mM DTT, 10% Glycerol and stored at −70° C.
Measurement of enzyme activity: Tyrosine protein kinase assays with purified GST-Flt-3 protein are carried out in a final volume of 30 μL containing 200-1800 ng of enzyme protein (depending on the specific activity), 20 mM Tris-HCl, pH 7.6, 3 mM MnCl2, 3 mM MgCl2, 1 mM DTT, 10 μM Na3VO4, 3 μg/mL poly(Glu, Tyr) 4:1, 1% DMSO, 8.0 μM ATP and 0.1 μCi [γ^33 P] ATP. The activity is assayed in the presence or absence of inhibitors, by measuring the incorporation of ^33P from [γ^33P] ATP into the poly(Glu,Tyr) substrate. The assay (30 μL) is carried out in 96-well plates at ambient temperature for 20 min and terminated by the addition of 20 μL of 125 mM EDTA. Subsequently, 40 μL of the reaction mixture is transferred onto Immobilon-PVDF membrane (Millipore, Bedford, Mass., USA) previously soaked for 5 min with methanol, rinsed with water, then soaked for 5 min with 0.5% H3PO4 and mounted on vacuum manifold with disconnected vacuum source. After spotting all samples, vacuum is connected and each well rinsed with 200 μL 0.5% H3PO4. Membranes are removed and washed 4× on a shaker with 1.0% H3PO4, once with ethanol. Membranes are counted after drying at ambient temperature, mounting in Packard TopCount 96-well frame, and addition of 10 μL/well of Microscint™ (Packard). IC50 values are calculated by linear regression analysis of the percentage inhibition of each compound in duplicate, at four concentrations (usually 0.01, 0.1, 1 and 10 μM). One unit of protein kinase activity is defined as 1 nmole of ^33P transferred from [γ3P] […]

One may read the IC50 as the concentration that gives 50% inhibition. High values mean weaker potency, low ones greater potency. For orientation: melting point means the temperature of the solid-liquid transition. `CC(C)N1CCN(Cc2cc(NC(=O)Nc3ccc(Oc4cc(Cl)ncn4)cc3)cc(C(F)(F)F)c2)CC1` [Example 5, N-[4-(6-Chloro-pyrimidin-4-yloxy)-phenyl]-N′-[3-(4-isopropylpiperazin-1-ylmethyl)-5-trifluoromethyl-phenyl]-urea] registered a melting point of 101 °C. Also, the half-maximal inhibitory concentration (IC50) against Flt-3 was determined as 540 nM.

With `Nc1cc(Oc2ccc(NC(=O)Nc3ccc(-c4cccnc4)c(C(F)(F)F)c3)cc2)ncn1` [Example 58, 1-[4-(6-Amino-pyrimidin-4-yloxy)-phenyl]-3-(4-pyridin-3-yl-3-trifluoromethyl-phenyl)-urea], the melting point lay in the range of 132 to 135 °C. For the same molecule, the IC50 against Flt-3 turned out to be 120 nM.

In turn, `CNc1cc(Oc2ccc(NC(=O)Nc3ccc(-c4cccnc4)c(C(F)(F)F)c3)cc2)ncn1` [Example 62, 1-[4-(6-Methylamino-pyrimidin-4-yloxy)-phenyl]-3-(4-pyridin-3-yl-3-trifluoromethyl-phenyl)-urea] gave a melting point of 118 to 123 °C. The molecule further came in with a half-maximal inhibitory concentration (IC50) on Flt-3 of 160 nM. In turn, `CNc1cc(Oc2ccc(NC(=O)Nc3ccc(-c4cccc(C)n4)c(C(F)(F)F)c3)cc2)ncn1` [Example 64, 1-[4-(6-Methylamino-pyrimidin-4-yloxy)-phenyl]-3-[4-(6-methyl-pyridin-2-yl)-3-trifluoromethyl-phenyl]-urea] gave a melting point of 106 to 109 °C. At Flt-3, this molecule displayed a half-maximal inhibitory concentration (IC50) of 340 nM. In the case of `Cc1nccn1Cc1ccc(NC(=O)Nc2ccc(Oc3cc(Cl)ncn3)cc2)cc1C(F)(F)F` [Example 24, N-[4-(6-Chloro-pyrimidin-4-yloxy)-phenyl]-N′-[4-(2-methylimidazol-1-ylmethyl)-3-trifluoromethyl-phenyl]-urea], the melting point stood at 228 °C. In addition, it took 170 nM to reach half-maximal inhibition at Flt-3 (IC50).

Molecule `CN1CCN(Cc2cc(NC(=O)Nc3ccc(Oc4cc(Cl)ncn4)cc3)cc(C(F)(F)F)c2)CC1` [Example 9, N-[4-(6-Chloro-Pyrimidin-4-yloxy)-phenyl]-N′-[3-(4-methylpiperazin-1-ylmethyl)-5-trifluoromethyl-phenyl]-urea] came in with a melting point of 291 to 292 °C. The same molecule had a half-maximal inhibitory concentration (IC50) against Flt-3 of 320 nM. Molecule `CCN(CC)Cc1cc(NC(=O)Nc2ccc(Oc3cc(N)ncn3)cc2)cc(C(F)(F)F)c1` [Example 13, N-[4-(6-Amino-pyrimidin-4-yloxy)-phenyl]-N′-(3-diethylaminomethyl-5-trifluoromethyl-phenyl)-urea] returned a melting point of 63 to 65 °C. Also, on Flt-3, half-maximal inhibition (IC50) was put at 340 nM. With `Cc1cccc(-c2ccc(NC(=O)Nc3ccc(Oc4cc(N)ncn4)cc3)cc2C(F)(F)F)n1` [Example 60, 1-[4-(6-Amino-pyrimidin-4-yloxy)-phenyl]-3-[4-(6-methyl-pyridin-2-yl)-3-trifluoromethyl-phenyl]-urea], the melting point was in the range of 130 to 133 °C. Also, half-maximal inhibition at Flt-3 (IC50) was put at 160 nM. `Nc1cc(Oc2ccc(NC(=O)Nc3ccc(CN4CCNCC4)c(C(F)(F)F)c3)cc2)ncn1` [Example 19-1, N-[4-(6-Amino-pyrimidin-4-yloxy)-phenyl]-N′-[4-(4-H-piperazin-1-ylmethyl)-5-trifluoromethyl-phenyl]-urea]: the melting point was 153 to 155 °C. This molecule also came in with an IC50 against Flt-3 of 38 nM. Regarding `CN(C)Cc1ccc(NC(=O)Nc2ccc(Oc3cc(Cl)ncn3)cc2)cc1C(F)(F)F` [Example 20-2, N-[4-(6-Chloro-pyrimidin-4-yloxy)-phenyl]-N′-[4-(N,N-dimethylamino-methyl)-3-trifluoromethyl-phenyl]-urea], the melting point lay within 98 to 105 °C. Take `Nc1cc(Oc2ccc(NC(=O)Nc3ccc(-c4ccccn4)c(C(F)(F)F)c3)cc2)ncn1` [Example 57, 1-[4-(6-Amino-pyrimidin-4-yloxy)-phenyl]-3-(4-pyridin-2-yl-3-trifluoromethyl-phenyl)-urea]: the IC50 at Flt-3 came out at 118 nM. With `Nc1cc(Oc2ccc(NC(=O)Nc3ccc(CN4CCC4)c(C(F)(F)F)c3)cc2)ncn1` [Example 34b.3], the IC50 on Flt-3 is 370 nM.

Consider `COc1cccc(Nc2cc(Oc3ccc(NC(=O)Nc4ccc(N5CCOCC5)c(C(F)(F)F)c4)cc3)ncn2)c1` [Example 55c], for which, at Flt-3, the midpoint of inhibition, the IC50, lay at 370 nM. In other words, the sub-micromolar range. The molecule `CNc1cc(Oc2ccc(NC(=O)Nc3ccc(Cn4cnc(C)c4C)c(C(F)(F)F)c3)cc2)ncn1` [Example 34d.1] came in with a half-maximal inhibitory concentration (IC50) against Flt-3 of 670 nM. In turn, `CCN1CCN(Cc2ccc(NC(=O)Nc3ccc(Oc4cc(NC(=O)OC)ncn4)cc3)cc2C(F)(F)F)CC1` [Example 70] yielded a melting point of 191 to 193 °C. Take `CCN1CCN(Cc2ccc(NC(=O)Nc3ccc(Oc4cc(NC)ncn4)cc3)cc2C)CC1` [Example 34g.1]: at Flt-3, the midpoint of inhibition, the IC50, lay at 300 nM. `CNc1cc(Oc2ccc(NC(=O)Nc3ccc(CN(C)C(C)(C)C)c(C(F)(F)F)c3)cc2)ncn1` [Example 34a.1] showed a half-inhibitory concentration (IC50) on Flt-3 of 1100 nM. In turn, `CCN1CCN(Cc2ccc(NC(=O)Nc3ccc(Oc4ccnc(NC)n4)cc3)cc2C)CC1` [Example 51d.2] had a concentration for half-maximal inhibition (IC50) at Flt-3 of 135 nM. As to `CNc1nccc(Oc2ccc(NC(=O)Nc3ccc(CN(C)C)c(C(F)(F)F)c3)cc2)n1` [Example 48, N-[4-(2-Methylamino-pyrimidin-4-yloxy)-phenyl]-N′-[4-(4-dimethylamino-methyl) 3-trifluoromethyl-phenyl]-urea], on Flt-3, the IC50 worked out at 580 nM.

As for `CCN1CCN(Cc2ccc(NC(=O)Nc3ccc(Oc4cc(Cl)ncn4)cc3)cc2)CC1` [Example 27, N-[4-(6-Chloro-pyrimidin-4-yloxy)-phenyl]-N′-[4-(4-ethylpiperazin-1-ylmethyl)-phenyl]-urea], the melting point is 203 to 204 °C.

In turn, `CCN1CCN(Cc2ccc(NC(=O)Nc3ccc(Oc4cc(N)ncn4)cc3)cc2C)CC1` [Example 34g.3] showed an IC50 against Flt-3 of 378 nM. In turn, `Nc1cc(Oc2ccc(NC(=O)Nc3ccc(CN4CCOCC4)c(C(F)(F)F)c3)cc2)ncn1` [Example 34k.3] registered a half-maximal inhibitory concentration (IC50) at Flt-3 of 100 nM. Compared with the last molecule, the IC50 is about 3.8-fold lower.

Molecule `CNc1cc(Oc2ccc(NC(=O)Nc3ccc(Cn4ccnc4C)c(C(F)(F)F)c3)cc2)ncn1` [Example 34e.1] yielded a half-maximal inhibitory concentration (IC50) against Flt-3 of 160 nM. In turn, `CNc1cc(Oc2ccc(NC(=O)Nc3cc(CN4CCC4)cc(C(F)(F)F)c3)cc2)ncn1` [Example 2, N-[4-(6-Methylamino-pyrimidin-4-yloxy)-phenyl]-N′-(3-azetidin-1-ylmethyl-5-trifluoromethyl-phenyl)-urea] returned a 50% inhibitory concentration (IC50) at Flt-3 of 1200 nM. As to `O=C(Nc1ccc(Oc2cc(Cl)ncn2)cc1)Nc1cc(CN2CCC2)cc(C(F)(F)F)c1` [Example 1, N-[4-(6-Chloro-pyrimidin-4-yloxy)-phenyl]-N′-[3-(azetidin-1-ylmethyl)-5-trifluoromethyl-phenyl]-urea], the midpoint of inhibition on Flt-3, the IC50, lay at 905 nM.

Source of the values: patent US20080312192A1, “Diaryl Urea Derivatives in the Treatment of Protein Kinase Dependent Diseases” (priority 2003, published 2008).
